Assay results as given in patent US20100267928A1, “ACTIVATABLE DIAGNOSTIC AND THERAPEUTIC COMPOUND” (priority 2007, published 2010).
Primed or numbered codes have the meaning given here. Where no end group is shown, it is not given here. The star is where a group is joined. DOTA = O=C(O)CN1CCN(CC(=O)O)CCN(CC(=O)*)CCN(CC(=O)O)CC1; FITC′ = fluorescent dye, fluorescein isothiocyanate

What was measured:
MMP-2 = target: T1, MMP-2 (Homo sapiens, UniProt P08253); experiment: Cleavage test with MMP-2, cleavage products examined by HPLC; format: biochemical
T1 construct: purchased Calbiochem
T1 sequence (P08253 110-660): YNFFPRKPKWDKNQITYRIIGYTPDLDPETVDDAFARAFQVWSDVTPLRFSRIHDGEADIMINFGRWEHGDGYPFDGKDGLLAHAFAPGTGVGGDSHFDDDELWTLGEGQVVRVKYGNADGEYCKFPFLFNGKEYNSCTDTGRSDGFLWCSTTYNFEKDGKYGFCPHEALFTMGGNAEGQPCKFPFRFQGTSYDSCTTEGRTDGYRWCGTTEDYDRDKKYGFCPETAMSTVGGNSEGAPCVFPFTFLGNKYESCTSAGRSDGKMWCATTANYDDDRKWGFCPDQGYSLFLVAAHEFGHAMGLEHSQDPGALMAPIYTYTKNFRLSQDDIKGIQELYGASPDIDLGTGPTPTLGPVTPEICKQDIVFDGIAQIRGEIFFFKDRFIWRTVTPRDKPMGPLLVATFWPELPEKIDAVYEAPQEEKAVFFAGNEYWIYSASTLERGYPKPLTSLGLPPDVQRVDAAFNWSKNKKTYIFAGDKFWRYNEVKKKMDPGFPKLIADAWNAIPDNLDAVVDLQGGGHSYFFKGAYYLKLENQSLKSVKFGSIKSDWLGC
Method: The incubation in HEPES buffer with active MMP-2 was made for 2 hours.
[…]. For this 1% APMA stock solution (100 mM in DMSO) was added to the solution containing the MMP-2 proenzyme and the compounds (final APMA concentration: 1 mM, with 1% DMSO).
In the following also an incubation of 2 hours was performed. In addition the tests were made with the MMP-2 inhibitor I (Calbiochem). All six compounds were, as a control, also incubated into HEPES buffer without MMP-2 for two hours.

[1] = system: LN18 and U373 glioma cells; experiment: Confocal laser scanning microscopy (CLSM) and FACS, staining of cell nuclei; format: cell-based, human; details: 130 μM, APMA-containing medium, MMP-2 inactive/inhibited
Method: (§1) The FACS analysis was performed on a Becton-Dickinson FACSCalibur. [[…] of the cell suspension (1×10^6 cells+[…] FACS buffer (DPBS buffer with 1% paraformaldehyde)]. Approximately 25.000 to 35.000 cells were measured per sample [fluorescence excitation: argon-ion laser (480 nm), fluorescence detection: 540 to 565 nm band-path filter]. The tests were repeated two times.

[2] = system: LN18 and U373 glioma cells; details: 130 μM; APMA-containing medium without inhibitor
Method: Human malignant glioma cells (U373 and LN18) were seated into 25 cm^2 culture flasks which contained 3 ml RPMI medium. This was left as it is for one day so that enough matrix metalloprotenases (MMP-2) could accumulate.
In a second test the same compounds were again dissolved in the media of 12 flasks (130 μM), however now with MMP-2 inhibitor I (Calbiochem).
As a control four small flasks were used wherein both cell lines were incubated in a one day old medium with and also without APMA.
For the confocal laser scanning microscopy an inverted LSM510 laser scanning microscope (Karl Zeiss, Jena, Deutschland) (Objectives: LD Achroplan 40×0.6, Plan Neofluar 20×0.50, 40×0.75) was used [fluorescence excitation at 488 nm (argon-ion laser) and […] (helium-neon laser)]. Superimposed images of FITC- and alexa-stained cells were produced. All measurements were performed on living, non-fixed cells for three times.

LN18 glioma cells = experiment: FACS analysis of fluorescence-stained cells; format: cell-based, human; details: depending on the concentration; FIG. 5
Method: as §1

[3] = system: U373 and LN18 glioma cells; experiment: Magnetic resonance relaxometry on glioma cell centrifugates; format: cell-based, human
Method: Human U373 and LN18 glioma cells were grown in 25 cm^2 culture flasks (70% confluence). Accutase™ (PAA laboratories, Pasching, Austria) was added to strip off the cells from the bottom of the culture flasks.
In a first try the cells were collected and subsequently distributed on 16 Eppendorf-vials (6×10^6 cells per vial). The cells in the first four vials were used as a control (only RPMI medium with and also without APMA, two cell lines). […] In the following it was washed for three times with PBS and centrifuged with 800 rpm (rounds per minute) for 5 minutes.
In another test adherent U373 and LN18 glioma cells were incubated with the compounds 2A, 4A and […], and were stripped off in the following and collected in Eppendorf vials for the MRT. The MRT analysis of the Eppendorf vials with the cell centrifugates were performed in a 3 Tesla full body MRT apparatus (Trio, Siemens Magnetom Sonata, circular polarised knee coil).
The following spin echo sequence was used to obtain sagittal T1-weighted MRT images.
[…] TE (echo time): 7.4 ms, flip angle 90°, averages: 1, concatenations: 2, measurements: 2, number of slices: 19, distance factor: 30%, slice thickness: 3 mm, field of view read: 180 mm, field of view phase: 100%, base resolution: 256, phase resolution: 100%, voxel size: 0.7×0.7×3.0 mm, scan time: 1:48 min.
By means of multiple spin echo measurements (TR: 20-8000 ms, 50 different TR values) different signal intensities were measured through which the T1 relaxation time could be determined.
TR: 20-8000 ms (50 different TR values), TE: 6.4 ms, flip angle 90°, averages: 1, measurements; 1, number of slices: 1, slice thickness: 1 mm, field of view read: 120 mm, field of view phase: 87.5, base resolution 128, phase resolution; 100% voxel size: 0.9×0.9×1 mm.
For the analysis and calculations a Matlab programme (Math Works, Natick, Mass., USA) was used. The T1 values were determined via a two-parameter fit. All signal curves were examined and rated as being mono-exponential. All tests were performed three times.

[4] = system: intra-cerebral LN18 brain tumors; experiment: In vivo magnetic resonance tomography of nude mice with implanted glioma
Method: Female nude mice CD1(Nu/Nu) were obtained from Charles River (Sulzfeld, Germany) (weight: 25 g; age: 7 weeks). Human LN18 glioma cells were grown and implanted into the brain as described by Friese et al. (2003), MICA/NKG2D-mediated Immunogene Therapy of Experimental Gliomas, Cancer Res. 63(24): 8996-9006. The tests were performed 3 weeks after the implantation.
3.6 mg of the compound 4A were dissolved in 1 ml isotonic saline solution and intraperitoneally injected into 2 mice. Further, 3.6 mg of compound 4A were dissolved in 1 ml isotonic saline solution together with 0.5 mg MMP-2 inhibitor I, and in intraperitoneally injected into 2 mice. A mouse was used as control which were injected with 1 ml pure saline solution. Narcosis was performed with ketamine (100 mg/kg) and xylazine (10 mg/kg) intraperitoneally.
MRT was performed with a 3 Tesla full body apparatus (Trio. Siemens).
The mice were placed face down in a wrist array coil.
The MRT protocol consisted of the following sequences:
Tse 3D sequence: slice thickness 0.3125 mm, field of view read 63 mm, field of view phase 100.0%, base resolution 256, phase resolution 100%, slice resolution 100%, voxel seize 0.2×0.2×0.3 mm, slab group 1, slabs 1, slices per slab 16, TR 300 ms, TE 15 ms, flip angle 70, distance factor 50, scan time 12:02 min.
T1 weighted transverse images: slice thickness 2 mm, field of view read 31 mm, field of view phase 82.3%, voxel seize 0.2×0.2×2 mm, TR 600 ms, TE 18 ms, flip angle 180, number of slices 12, distance factor 0, scan time 11:35 min.

In the case of “K-(GdDOTA)-G-PLGLA-GG-PKKKRKVRRRR-K(FITC)-GG-K(GdDOTA) (K(DOTA)GPLGLAGGPKKKRKVRRRRK(FITC′)GGK(DOTA)-NH2; also: DOTA groups complexed with Gd (GdDOTA)) [V4A]”, the “cleavage of the compound by MMP-2 (HPLC)” value (MMP-2; already active MMP-2 or proform of MMP-2 activated by APMA, 2 hours in HEPES buffer) is reported as “cleaved”, the “cleavage of the compound by MMP-2 in presence of the inhibitor (HPLC)” value (MMP-2; with MMP-2 inhibitor I) is reported as “prevented” and the “staining of the cell nuclei, MMP-2 inactive” value [1] is reported as “few stained cell nuclei”. For the same substance, the “apoptosis (binding of Alexa annexin to phosphatidyl serine; morphologic alterations), MMP-2 active” value [2] was “apoptotic”, the “fluorescence after cleavage by MMP-2 in comparison to the components 2 and 2A” value (LN18 glioma cells) was “stronger fluorescence” and the “shortening of the T1 time in comparison to the native control, inhibitor-containing medium” value ([3]; 26 and 130 μM, with MMP-2 inhibitor) was “minor shortening of the T1 time”. The “signal intensity at TR: 400 ms, active MMP-2 versus inactive MMP-2” value ([3]; LN18 glioma cell centrifugates, 26 and 130 μm, washed and centrifuged three times) was “considerably higher signal intensity”, the “shortening of the T1 time in comparison to component 2A, inhibitor-free medium” value ([3]; depending on the concentration) was “stronger shortening of the T1 time” and the “shortening of the T1 time, inhibitor-free medium” value ([3]; without MMP-2 inhibitor) was “more distinct shortening of the T1 time”. For the same substance, the “intensity of the signal in the tumor in comparison to the native image” value ([4]; 30 minutes after intraperitoneal administration, FIG. 8) was “considerably decreases”, the “signal intensity in the brain tumors in MR tomography” value ([4]; intraperitoneal administration, nude mice with intra-cerebral LN18 brain tumors) was “distinct increase of the signal intensity” and the “signal intensity in the brain tumors, administered in the presence of an MMP-2 inhibitor” value ([4]; intraperitoneal, with MMP-2 inhibitor, remained only for a short time) was “very minor increase of the signal intensity”. The “signal intensity in the brain tumors one day after the administration” value ([4]; intraperitoneal, one day after administration) was “attenuated form”.
